Source: PMC2728224 (Cancer Chemotherapy and Pharmacology, 2009)

Target: T1, dihydrofolate reductase (DHFR) (Homo sapiens, UniProt P00374)
T1 sequence (P00374 1-187): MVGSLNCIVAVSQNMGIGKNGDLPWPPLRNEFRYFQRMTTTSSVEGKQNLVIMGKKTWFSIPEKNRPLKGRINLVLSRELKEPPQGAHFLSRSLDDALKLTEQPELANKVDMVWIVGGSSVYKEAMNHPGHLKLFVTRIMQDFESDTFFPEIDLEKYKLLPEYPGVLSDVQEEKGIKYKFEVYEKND
Experiment: spectrophotometric DHFR activity assay
Format: biochemical

Ki: 45 nM
Compound: C#CCC(Cc1cnc2nc(N)nc(N)c2n1)c1ccc(C(=O)NC(CCC(=O)O)C(=O)O)cc1 (racemic) [pralatrexate]
